Patent US20260335314A1, “CRYSTALLINE SALTS OR AMORPHOUS FORMS OF 2-((1H-PYRAZOL-3-YL)METHYL)-6-((6-AMINOPYRIDIN-2-YL)METHYL)-4-METHYL-4,6-DIHYDRO -5H-THIAZOLO[5',4':4,5]PYRROLO[2,3-D]PYRIDAZIN-5-ONE” (Agios Pharmaceuticals, Inc., priority 2023, published 2026)
In brackets after ≈: the same amount, converted by molar mass.

Assays:
[1] = Pharmacokinetics / absolute bioavailability in male Sprague Dawley rats; assay type: in vivo; settings: for AUCinf / AUC(0-inf): plasma; for AUC(0-inf): rat
Description: Twenty-one (21) male Sprague Dawley rats (purchased from Shanghai Laboratory Animal Center Co., Ltd., Shanghai, China) were randomized into 7 groups (3 animals per group). The animals fasted overnight, the forms of Compound 1 shown in Table 7 were administered by oral gavage, and the animals were fed 4 hours post-dose.
Blood was serially collected from each animal at 0 (pre-dose), 0.083, 0.25, 0.5, 1, 2, 4, 8, and 24 h post-dose. For each collection, the animal was restrained manually, and approximately 150 μL of blood sample was collected via the tail vein into K2EDTA tubes. Plasma samples were stored at approximately −70° C. until analysis.
To enable the calculation of absolute bioavailability, Compound 1 was formulated as a solution in 10% N-methyl-2-pyrrolidone, 10% Solutol HS 15, and 80% saline and administered at 1 mg/kg as intravenous (IV) bolus dose to a separate group of male Sprague Dawley rats, and blood samples were collected at similar timepoints to those shown above. Further, plasma samples were obtained from the collected samples and stored at approximately −70° C. until analysis.
The concentration of Compound 1 in the plasma samples was determined by LC-MS/MS analysis.
A 20 μL aliquot of each plasma sample was mixed with 200 μL of acetonitrile containing glipizide as an internal standard (40 ng/mL). The resulting mixture was vortexed at 1500 rpm for 2 min and centrifuged at 5800 rpm for 10 min. A 1 μL sample from the supernatant was injected into LC-MS/MS.
LC-MS/MS analysis was conducted on a UPLC/MS-MS (API 6500+) system under the conditions outlined in Table 8
The absolute bioavailability of each form of Compound 1 was determined by dividing the AUCinf of the form in question by the AUCinf obtained historical data by IV administration of Compound 1.

[2] = Dynamic vapor sorption (moisture uptake); assay type: physicochemical; settings: 25° C.
Description: Dynamic Vapor Sorption (DVS) was carried out using a TA Instruments Q5000 Dynamic Vapor Sorption analyzer. The instrument was calibrated with standard weights and a sodium bromide standard for humidity. Approximately 10-25 mg of sample was loaded into a metal-coated quartz pan for analysis. […] The movement from one step to the next occurred either after satisfying the equilibrium criterion of 0.01% weight change or, if the equilibrium criterion was not met, after one hour. The percent weight change values were calculated using Microsoft Excel®.

[3] = XRPD of solid residue from solubility samples (salt disproportionation); assay type: physicochemical; settings: FaSSIF residue
Description: (§1) At each time point, the solution was analyzed by HPLC and residue was vacuum dried and analyzed by XRPD. The pH of the solution was measured at 24 hours.
(§2) Kinetic solubility was determined in biorelevant media. At each time point, the solution was analyzed by HPLC. The solid residue was analyzed by XRPD at selected time points. The pH of the solution was measured at 24 hours.

[4] = Kinetic solubility in biorelevant media; assay type: physicochemical
Description: (§3) Solubility samples were prepared by weighing about 10 mg of each salt and adding 1 mL of media and vortexed briefly to obtain suspensions. […] For such instances, the solubility is calculated as greater than (>).
(§4) The sample vials were capped and wrapped in aluminum foil, and placed on a shaker at 37° C. The shaker was set at about 100 rpm and vials were removed at specified time points. The vials were observed, and the supernatants were transferred to Eppendorf tubes and centrifuged at 3K for 10 minutes. The clear supernatants were transferred to HPLC vials. The samples were diluted prior to HPLC analysis using the dilution media by 2× or used without dilution. pH was measured of the 24 hour timepoint after centrifugation using a micro pH probe.
• pH 2 buffer USP: Mixed 50 mL of 0.2M potassium chloride and 13 mL 0.2M HCl, diluted to 200 mL with water. • pH 4.5 buffer USP: 5.44 g of potassium dihydrogen phosphate was diluted to 1000 mL with water. • pH 6.8 buffer USP: Mixed 50 mL of 0.2M potassium phosphate and 22.4 mL 0.2M sodium hydroxide. Diluted with water to 200 mL. • SGF: 2.0109 g of NaCl was dissolved in water, added 7 mL of conc. HCl and diluted to 1 L. • FeSSIF: 4.0321 g of NaOH and 11.8726 g of NaCl were dissolved in water, added 8.65 mL of glacial acetic acid, […] 0.4247 g of NaOH, 3.9548 g of sodium phosphate monobasic monohydrate and 6.1900 g of NaCl were dissolved in water, adjusted the pH to 6.5 and diluted to 1 L.
as §2

[5] = pH solubility in buffers; assay type: physicochemical; settings: for pH (24 h): pH of solution at 24 h; for solubility / solubility at 2 h: 37 °C
Description: as §3, §4
• pH 2 buffer USP: Mixed 50 mL of 0.2M potassium chloride and 13 mL 0.2M HCl, diluted to 200 mL with water. • pH 4.5 buffer USP: 5.44 g of potassium dihydrogen phosphate was diluted to 1000 mL with water. • pH 6.8 buffer USP: Mixed 50 mL of 0.2M potassium phosphate and 22.4 mL 0.2M sodium hydroxide. Diluted with water to 200 mL. • SGF: 2.0109 g of NaCl was dissolved in water, added 7 mL of conc. HCl and diluted to 1 L. • FeSSIF: 4.0321 g of NaOH and 11.8726 g of NaCl were dissolved in water, added 8.65 mL of glacial acetic acid, adjusted the pH to 5.0 and diluted to 1 L. • FaSSIF: 0.4247 g of NaOH, 3.9548 g of sodium phosphate monobasic monohydrate and 6.1900 g of NaCl were dissolved in water, adjusted the pH to 6.5 and diluted to 1 L.
as §1

[6] = from 5% to 95% relative humidity
[7] = from 2% to 95% relative humidity

For `Cn1c2nc(Cc3cc[nH]n3)sc2c2cnn(Cc3cccc(N)n3)c(=O)c21` [Form E], the AUCinf ([1]; oral gavage, 10 mg/kg, fasted overnight, listed as Free Base Hydrate Form E (wet milled)) was 7378 ng·h/mL, the “Absolute % F” value ([1]; oral gavage, 10 mg/kg, vs historical IV AUCinf, listed as Free Base Hydrate Form E (Unmilled), 10 mg/kg) was 45% and the “Absolute % F” value ([1]; oral gavage, 10 mg/kg, vs historical IV AUCinf, listed as Free Base Hydrate Form E (wet milled), 10 mg/kg) was 47%. For the same compound, the AUC(0-inf) ([1]; po, 10 mg/kg, oral gavage, fasted overnight) was 6960 ng·h/mL and the “moisture uptake (DVS)” value [2, 6] was “about 1.3%”.

For `Cn1c2nc(Cc3cc[nH]n3)sc2c2cnn(Cc3cccc(N)n3)c(=O)c21` [Form B], the “absolute bioavailability, comparison with other forms” value ([1]; oral gavage, 10 mg/kg) was “higher than the measured bioavailability of the other forms of Compound 1”, the AUCinf ([1]; oral gavage, 10 mg/kg, fasted overnight) was 10846 ng·h/mL and the “Absolute % F” value ([1]; oral gavage, 10 mg/kg, vs historical IV AUCinf, 10 mg/kg) was 70%. The “salt disproportionation by XRPD” value [3] was “some salt remained”, the solubility ([4]; FaSSIF pH 6.5, 10 min, 37 °C, 10 min) was 0.38 (suspect) mg/mL and the solubility ([4]; FaSSIF pH 6.5, 30 min, 37 °C, 30 min) was 0.36 (suspect) mg/mL. For the same compound, the solubility ([4]; FaSSIF pH 6.5, 1 h, 37 °C, 60 min) was 0.24 mg/mL (≈ 612 µM), the solubility ([4]; FaSSIF pH 6.5, 2 h, 37 °C, 120 min) was 0.57 mg/mL (≈ 1450 µM) and the solubility ([4]; FaSSIF pH 6.5, 4 h, 37 °C, 240 min) was 1.40 (suspect) mg/mL. For the same compound, the solubility ([4]; FaSSIF pH 6.5, 24 h, 37 °C, 1440 min) was 0.70 mg/mL (≈ 1780 µM), the “pH (24 h)” value ([4]; FaSSIF pH 6.5, pH of solution at 24 h) was 3.39 and the solubility ([4]; FeSSIF pH 5.0, 1 h, 37 °C, 60 min) was 0.08 mg/mL (≈ 204 µM). The “pH (24 h)” value ([4]; FeSSIF pH 5.0, pH of solution at 24 h) was 4.79, the “pH (24 h)” value ([4]; SGF pH 1.2, pH of solution at 24 h) was 1.0 and the solubility at 10 min ([4]; fessif, pH 5, FeSSIF pH 5.0, 10 min, 37 °C) was 340 µg/mL (≈ 866 µM). For the same compound, the solubility at 0.5 h ([4]; fessif, pH 5, FeSSIF pH 5.0, 30 min, 37 °C) was 130 µg/mL (≈ 331 µM), the solubility at 2 h ([4]; fessif, pH 5, FeSSIF pH 5.0, 2 h, 37 °C) was 110 µg/mL (≈ 280 µM) and the solubility at 4 h ([4]; fessif, pH 5, FeSSIF pH 5.0, 4 h, 37 °C) was 100 µg/mL (≈ 255 µM). For the same compound, the solubility at 24 h ([4]; fessif, pH 5, FeSSIF pH 5.0, 24 h, 37 °C) was 60 µg/mL (≈ 153 µM), the solubility ([4]; sgf, pH 1.2, SGF pH 1.2, 37 °C, dissolved instantly, from total volume of media added, read-out: solubility) was greater than 10 mg/mL and the “dissolution in SGF” value ([4]; simulated gastric fluid (SGF)) was “dissolved instantly”. For the same compound, the “moisture uptake (DVS)” value [2, 6] was “about 0.9%”, the “dissolution in 0.1N HCl” value ([5]; 0.1N HCl) was “dissolved instantly” and the “pH (24 h)” value ([5]; 0.1 N HCl) was 1.44. It also gave a solubility ([5]; 0.1 n hcl, dissolved instantly, estimated by adding 100 uL aliquots, read-out: solubility) greater than 16700 µg/mL, a solubility ([5]; pH 2 (USP), 2 h, 120 min) of 2590 µg/mL (≈ 6600 µM) and a solubility ([5]; pH 2 (USP), 24 h, 1440 min) of 2400 µg/mL (≈ 6120 µM). The “pH (24 h)” value ([5]; pH 2 (USP)) was 2.26, the solubility ([5]; pH 4.5 (USP), 24 h, 1440 min) was 270 µg/mL (≈ 688 µM) and the “pH (24 h)” value ([5]; pH 4.5 (USP)) was 4.01. For the same compound, the solubility ([5]; pH 6.8 (USP), 24 h, 1440 min) was 10 µg/mL (≈ 25.5 µM), the “pH (24 h)” value ([5]; pH 6.8 (USP)) was 5.09 and the solubility at 2 h ([5]; ph 4.5 buffer (usp), pH 4.5, pH 4.5 (USP), 2 h) was 70 µg/mL (≈ 178 µM). The solubility at 2 h ([5]; ph 6.8 buffer (usp), pH 6.8, pH 6.8 (USP), 2 h) was 30 µg/mL (≈ 76.4 µM).

In the case of `Cn1c2nc(Cc3cc[nH]n3)sc2c2cnn(Cc3cccc(N)n3)c(=O)c21` [Form D-1], the “moisture uptake (DVS)” value [2, 6] is reported as “about 2.8%”.

For `Cn1c2nc(Cc3cc[nH]n3)sc2c2cnn(Cc3cccc(N)n3)c(=O)c21` [Form D-2], the “moisture uptake (DVS)” value [2, 7] was “about 1.1%”.

In the case of `Cn1c2nc(Cc3cc[nH]n3)sc2c2cnn(Cc3cccc(N)n3)c(=O)c21.O=C(O)C(O)C(O)C(=O)O` [Form I], the “moisture uptake (DVS)” value [2, 7] is reported as “about 10.5%”.

With `Cn1c2nc(Cc3cc[nH]n3)sc2c2cnn(Cc3cccc(N)n3)c(=O)c21` [Compound 1, 2-((1H-pyrazol-3-yl)methyl)-6-((6-aminopyridin-2-yl)methyl)-4-methyl-4,6-dihydro-5H-thiazolo[5′,4′:4,5]pyrrolo[2,3-d]pyridazin-5-one] the “Absolute % F” value ([1]; IV administration (historical), 1 mg/kg, reference) was 100% and the AUC(0-inf) ([1]; iv, 1 mg/kg, IV bolus (historical)) was 1560 ng·h/mL.
